Data: patent US6153589A, “2,3-epoxy alcohols, acids and derivatives as anti retroviral chemotherapeutic agents” (The United States of America as represented by the …, priority 1992, dated 2000)
Read-outs that look alike come from different tables or passages of the source. Where a SMILES comes first, the peptide text is derived from it. [ ]: non-standard residue; d: D form. The star is where a group is joined. Sta = CC(C)C[C@H](N)[C@@H](O)CC(=O)O; Isovaleryl = CC(C)CC(=O)*

Tests used:
[1] = tested on: HIV-2 protease; experiment: HIV protease cleavage of nonapeptide (HPLC); type: biochemical; details: 0.5 μl of 10 μg/μl inhibitor in DMSO per 10 μl reaction; pH 6.5, room temperature; pentapeptide product relative to DMSO control; sampled at ca. 16 and 40 hr (time not given)
Protocol: Activity Against HIV Protease
The assay for proteolyic activity is a modified version of that previously described by Copeland et al., Gene Anal. Tech., 5:109-115 (1988). For each assay to be performed 2 microliters of protease solution (ca. 100 ng) is added to 3 μg of nonapeptide (Val-Ser-Gln-Asn-Tyr-Pro-Ile-Val-Gln-NH2) in 8 μl of 200 mM sodium phosphate, 1 M NaCl, 5% glycerol, 0.25% Nonidet-40, at pH 6.5. This affords a stock solution containing 10 μl per number of reactions. This stock is aliquoted out in 10 μl portions to which 0.5 μl of DMSO (a control is run with each set of assays to compensate for minor experimental variations) or a DMSO solution containing 10 μg/μl of an inhibitor, i.e., any one of the compounds of the present invention, is added. The reactions were incubated at room temperature and 4 μl portions were removed at ca. 16 and 40 hr. intervals. HPLC analysis was performed on a 4.6×250 mm Lichrosorb RP-18 column eluted with a gradient of 0-40% acetonitrile in water (containing 0.05% TFA) over 30 min monitoring absorbance at 206 nm. Progress of the enzymatic cleavage was followed by monitoring the appearance of the pentapeptide (Val-Ser-Gln-Asn-Tyr-OH) cleavage product. The activity is expressed as the amount of the pentapeptide (Val-Ser-Gln-Asn-Tyr-OH) observed relative to the control reaction for that set of assays.
Inhibition of HIV-2 protease

[2] = tested on: HIV1 IIIb; experiment: microbe, parasite or virus in culture; type: cell-based; details: Human immunodeficiency virus 1, IIIB; for viability at 50 µg/mL: 50 ug/ml; for viability at 4.9 µg/mL: 4.9 ug/ml; for viability at 2.9 µg/mL: 2.9 ug/ml; for viability at 21 µg/mL: 21 ug/ml; for viability at 10 µg/mL: 10 ug/ml; for viability at 0.1 µg/mL: 0.1 ug/ml; for viability at 1 µg/mL: 1 ug/ml
Excerpt: In-vitro Screening Anti--HIV XTT Assay
This assay, which is available to the public by the National Cancer Institute, utilizes colorimetry based on the production of a colored formazin from a tetrazolium salt by viable cells, to develop a safe, rapid and quantitative measure of HIV cytopathology. The assay is a modification of the previously described screening method for the detection of anti-tumor drug cytotoxicity (D. A. Scudiero, et al, Cancer Res, 48, 4827-4833 (1988)). It involves the plating of susceptible human "host" cells with and without virus in microculture plates, adding various concentrations of the respective test compounds, incubating the plates for seven days, during which time infected, non-drug treated control cells are largely or totally destroyed by the virus. The number of remaining viable cells are determined utilizing a calorimetric endpoint. A beneficial antiviral effect is indicated by a response % grater than the virus kill %, with 100% being optimal.
Anti-viral effect: Response (Viable Cells, determined by colorometric
absorbance of formazan dye produced) as % of uninfected controls
Virus Source: HIV1 IIIb; C, Virus producing H9 cells; V, cell free virus
Virus Kill: Infected untreated cells as % of uninfected cell controls
*: Culture redosed with compound after 3 days

In the case of `CCCCCCCCCCC[C@@H]1O[C@@H]1CO` (relative stereo) [2-cis-Undecyloxirane methanol], the “Percent Control Cleavage of Nonapeptide HIV-1 Cleavage Site Fragment” value (from here on “Percent Control Cleavage”) [1] was 104%.
In the case of `CCCCCCCCCCC[C@H]1O[C@@H]1CO` (relative stereo) [2-trans-Undecyloxirane methanol], the “Percent Control Cleavage” value [1] was 88%.
`CCCCCCC[C@H]1O[C@H]1C` (relative stereo) [Example 43, cis-2-Epoxydecene] was tested, and the “Percent Control Cleavage” value [1] was 102%.
For `CCCCCCC/C=C\CO` [Example 3, cis-2-Decen-1-ol], the “Percent Control Cleavage” value [1] was 105%.
`CCCCCCCCC[C@@H]1O[C@@H]1CO` [Example 12, (2R-cis)-3-Nonyloxirane Methanol] gave a viability at 50 µg/mL ([2]; 168 h, read-out: Antiviral Effect (viable cells as % of uninfected controls), run 8, source V (cell free virus), virus kill 27.0%) of 56.9%, a viability at 4.9 µg/mL ([2]; 168 h, read-out: Antiviral Effect (viable cells as % of uninfected controls), run 9, source V (cell free virus), virus kill 53.0%) of 82.4% and a viability at 2.9 µg/mL ([2]; 168 h, read-out: Antiviral Effect (viable cells as % of uninfected controls), run 10, source V (cell free virus), virus kill 55.0%) of 82.9%. For the same compound, the viability at 49 µg/mL ([2]; 168 h, read-out: Antiviral Effect (viable cells as % of uninfected controls), run 11, 49 ug/ml, source V (cell free virus), virus kill 30.0%) was 54.9%, the viability at 2.9 µg/mL ([2]; 168 h, read-out: Antiviral Effect (viable cells as % of uninfected controls), run 12, source V (cell free virus), virus kill 36.0%) was 62.2% and the viability at 21 µg/mL ([2]; 168 h, read-out: Antiviral Effect (viable cells as % of uninfected controls), run 13, source V (cell free virus), virus kill 19.5%) was 53.4%. The viability at 21 µg/mL ([2]; 168 h, read-out: Antiviral Effect (viable cells as % of uninfected controls), run 14, source V (cell free virus), virus kill 24.0%) was 98.7%, the viability at 10 µg/mL ([2]; H9, 168 h, read-out: Antiviral Effect (viable cells as % of uninfected controls), run 1, source C (virus producing H9 cells), virus kill 6.0%) was 75.1% and the viability at 10 µg/mL ([2]; H9, 168 h, read-out: Antiviral Effect (viable cells as % of uninfected controls), run 2, source C (virus producing H9 cells), virus kill 27.0%) was 71.3%. It also gave a viability at 50 µg/mL ([2]; H9, 168 h, read-out: Antiviral Effect (viable cells as % of uninfected controls), run 3, source C (virus producing H9 cells), virus kill 16.0%) of 32.1%, a viability at 4.9 µg/mL ([2]; H9, 168 h, read-out: Antiviral Effect (viable cells as % of uninfected controls), run 4, source C (virus producing H9 cells), virus kill 16.0%) of 31.6% and a viability at 2.9 µg/mL ([2]; H9, 168 h, read-out: Antiviral Effect (viable cells as % of uninfected controls), run 5, source C (virus producing H9 cells), virus kill 15.0%) of 23.1%. The viability at 4.9 µg/mL ([2]; H9, 168 h, read-out: Antiviral Effect (viable cells as % of uninfected controls), run 6, source C (virus producing H9 cells), virus kill 11.0%) was 16.7%, the viability at 29 µg/mL ([2]; H9, 168 h, read-out: Antiviral Effect (viable cells as % of uninfected controls), run 7, 29 ug/ml, source C (virus producing H9 cells), virus kill 11.0%) was 15.7% and the “Percent Control Cleavage” value [1] was 96%.
In the case of `OC[C@@H]1O[C@@H]1COCc1ccccc1` [Example 13, (2S-cis)-3-(Benzyloxymethyl)oxirane Methanol], the viability at 0.1 µg/mL ([2]; 168 h, read-out: Antiviral Effect (viable cells as % of uninfected controls), run 4, source V (cell free virus), virus kill 55.0%) was 50%, the viability at 0.1 µg/mL ([2]; 168 h, read-out: Antiviral Effect (viable cells as % of uninfected controls), run 5, source V (cell free virus), virus kill 27.0%) was 52.5% and the viability at 4.4 µg/mL ([2]; 168 h, read-out: Antiviral Effect (viable cells as % of uninfected controls), run 6, 4.4 ug/ml, source V (cell free virus), virus kill 24.0%) was 28.4%. For the same compound, the viability at 0.44 µg/mL ([2]; 168 h, read-out: Antiviral Effect (viable cells as % of uninfected controls), run 7*, 0.44 ug/ml, source V (cell free virus), virus kill 27.0%, culture redosed with compound after 3 days) was 30.1%, the viability at 0.1 µg/mL ([2]; H9, 168 h, read-out: Antiviral Effect (viable cells as % of uninfected controls), run 1, source C (virus producing H9 cells), virus kill 21.0%) was 22.1% and the viability at 1 µg/mL ([2]; H9, 168 h, read-out: Antiviral Effect (viable cells as % of uninfected controls), run 2, source C (virus producing H9 cells), virus kill 13.0%) was 15.7%. For the same compound, the viability at 1 µg/mL ([2]; H9, 168 h, read-out: Antiviral Effect (viable cells as % of uninfected controls), run 3, source C (virus producing H9 cells), virus kill 11.0%) was 10.2% and the “Percent Control Cleavage” value [1] was 81%.
`CCCCCCCCC[C@@H]1O[C@H]1CO` [Example 29, (2S-trans)-3-Nonyloxirane Methanol] was tested, and the “Percent Control Cleavage” value [1] was 106%.
`CCCCCCCCC[C@H]1O[C@@H]1CO` [Example 30, (2R-trans)-3-Nonyloxirane Methanol] was tested, and the “Percent Control Cleavage” value [1] was 105%.
`CCCCCCCCCCC[C@@H]1O[C@H]1CO` [Example 31, (2S-trans)-3-Undecyloxirane Methanol] was tested, and the “Percent Control Cleavage” value [1] was 95%.
For `CCCCCCCCCCC[C@H]1O[C@@H]1CO` [Example 32, (2R-trans)-3-Undecyloxirane Methanol], the “Percent Control Cleavage” value [1] was 98%.
For `CCCCCCC[C@@H]1O[C@H]1CO` [Example 33, (2S-trans)-3-heptyloxirane Methanol], the “Percent Control Cleavage” value [1] was 105%.
With `CCCCCCC[C@H]1O[C@@H]1CO` [Example 34, (2R-trans)-3-Heptyloxirane Methanol] the “Percent Control Cleavage” value [1] was 104%.
In the case of `CCCCCCC[C@H]1O[C@H]1C(=O)O` [Example 37, (2R-cis)-3-Heptyloxirane Carboxylic Acid], the “Percent Control Cleavage” value [1] was 104%.
For `CCCCCCC[C@@H]1O[C@@H]1C(=O)O` [Example 38, (2S-cis)-3-Heptyloxiranecarboxylic Acid], the “Percent Control Cleavage” value [1] was 105%.
In the case of `CCCCCCCCC[C@H]1O[C@H]1C(=O)N1CCC[C@H]1C(=O)OC` [Example 41, N-(2R-cis)-3-Nonyloxiraneacyl L-proline Methyl Ester], the “Percent Control Cleavage” value [1] was 24%.
`CCCCCCCCC[C@H]1O[C@H]1C(=O)N(CC)CC` [Example 42, N,N-Diethyl-(2R-cis)-3-nonyloxiranecarboxy Amide] was tested, and the “Percent Control Cleavage” value [1] was 77%.
In the case of `CCCCCCCCCCCCCC(=O)O` [Myristic Acid, reference compound], the “Percent Control Cleavage” value [1] was 111%.
In the case of `CC(C)CC(=O)N[C@H](C(=O)N[C@H](C(=O)N[C@@H](CC(C)C)[C@@H](O)CC(=O)N[C@@H](C)C(=O)N[C@@H](CC(C)C)[C@@H](O)CC(=O)O)C(C)C)C(C)C` [Pepstatin A, reference compound] (Isovaleryl-VV[Sta]A[Sta]-OH), the “Percent Control Cleavage” value [1] was 1%.
